Assay results from ChEMBL document CHEMBL5370556, “Optimization, and biological evaluation of 3-O-β-chacotriosyl betulinic acid amide derivatives as novel small-molecule Omicron” (Eur J Med Chem, 2023).

Legend:
SARS-CoV-2 = assay: Antiviral activity against luciferase-expressing pseudovirus encoding SARS-CoV-2 Omicron expressing S protein infected in human 293T/ACE2 cells assessed as reduction of viral growth measured after 48 hrs by luciferase assay; type: functional, organism-based; settings: Severe acute respiratory syndrome coronavirus 2, 293T/ACE2, 48 h
[1] = Selectivity index, ratio of CC50 for human 293T/ACE2 cells to EC50 for SARS-CoV-2 Omicron; type: toxicity; settings: read-out: Ratio CC50/EC50
[2] = Cytotoxicity against human 293T/ACE2 cells assessed as reduction in cell growth measured after 48 hrs by MTT assay; type: functional

SMILES	EC50 (SARS-CoV-2) [µM]	selectivity ratio [1]	CC50 [2] [µM]
C=C(C)[C@@H]1CC[C@]2(C(=O)NNc3ccccc3)CC[C@]3(C)[C@H](CC[C@@H]4[C@@]5(C)CC[C@H](O[C@@H]6O[C@H](CO)[C@@H](O[C@@H]7O[C@@H](C)[C@H](O)[C@@H](O)[C@H]7O)[C@H](O)[C@H]6O[C@@H]6O[C@@H](C)[C@H](O)[C@@H](O)[C@H]6O)C(C)(C)[C@@H]5CC[C@]43C)[C@@H]12	> 20	–	–
C=C(C)[C@@H]1CC[C@]2(C(=O)NOc3ccccc3)CC[C@]3(C)[C@H](CC[C@@H]4[C@@]5(C)CC[C@H](O[C@@H]6O[C@H](CO)[C@@H](O[C@@H]7O[C@@H](C)[C@H](O)[C@@H](O)[C@H]7O)[C@H](O)[C@H]6O[C@@H]6O[C@@H](C)[C@H](O)[C@@H](O)[C@H]6O)C(C)(C)[C@@H]5CC[C@]43C)[C@@H]12	9.88	11.7	116
C=C(C)[C@@H]1CC[C@]2(C(=O)NCc3ccc(Cl)cc3)CC[C@]3(C)[C@H](CC[C@@H]4[C@@]5(C)CC[C@H](O[C@@H]6O[C@H](CO)[C@@H](O[C@@H]7O[C@@H](C)[C@H](O)[C@@H](O)[C@H]7O)[C@H](O)[C@H]6O[C@@H]6O[C@@H](C)[C@H](O)[C@@H](O)[C@H]6O)C(C)(C)[C@@H]5CC[C@]43C)[C@@H]12	> 20	–	–
C=C(C)[C@@H]1CC[C@]2(C(=O)N(C)c3ccccc3)CC[C@]3(C)[C@H](CC[C@@H]4[C@@]5(C)CC[C@H](O[C@@H]6O[C@H](CO)[C@@H](O[C@@H]7O[C@@H](C)[C@H](O)[C@@H](O)[C@H]7O)[C@H](O)[C@H]6O[C@@H]6O[C@@H](C)[C@H](O)[C@@H](O)[C@H]6O)C(C)(C)[C@@H]5CC[C@]43C)[C@@H]12	5.06	13.7	69.5
C=C(C)[C@@H]1CC[C@]2(C(=O)Nc3ccc4ncccc4c3)CC[C@]3(C)[C@H](CC[C@@H]4[C@@]5(C)CC[C@H](O[C@@H]6O[C@H](CO)[C@@H](O[C@@H]7O[C@@H](C)[C@H](O)[C@@H](O)[C@H]7O)[C@H](O)[C@H]6O[C@@H]6O[C@@H](C)[C@H](O)[C@@H](O)[C@H]6O)C(C)(C)[C@@H]5CC[C@]43C)[C@@H]12	8.43	8.25	69.6
C=C(C)[C@@H]1CC[C@]2(C(=O)Nc3ccc(Cl)cc3)CC[C@]3(C)[C@H](CC[C@@H]4[C@@]5(C)CC[C@H](O[C@@H]6O[C@H](CO)[C@@H](O[C@@H]7O[C@@H](C)[C@H](O)[C@@H](O)[C@H]7O)[C@H](O)[C@H]6O[C@@H]6O[C@@H](C)[C@H](O)[C@@H](O)[C@H]6O)C(C)(C)[C@@H]5CC[C@]43C)[C@@H]12	6.5	13.5	87.5
C=C(C)[C@@H]1CC[C@]2(C(=O)Nc3ccc4sccc4c3)CC[C@]3(C)[C@H](CC[C@@H]4[C@@]5(C)CC[C@H](O[C@@H]6O[C@H](CO)[C@@H](O[C@@H]7O[C@@H](C)[C@H](O)[C@@H](O)[C@H]7O)[C@H](O)[C@H]6O[C@@H]6O[C@@H](C)[C@H](O)[C@@H](O)[C@H]6O)C(C)(C)[C@@H]5CC[C@]43C)[C@@H]12	> 20	–	–
C=C(C)[C@@H]1CC[C@]2(C(=O)NCc3ccc(OC)cc3)CC[C@]3(C)[C@H](CC[C@@H]4[C@@]5(C)CC[C@H](O[C@@H]6O[C@H](CO)[C@@H](O[C@@H]7O[C@@H](C)[C@H](O)[C@@H](O)[C@H]7O)[C@H](O)[C@H]6O[C@@H]6O[C@@H](C)[C@H](O)[C@@H](O)[C@H]6O)C(C)(C)[C@@H]5CC[C@]43C)[C@@H]12	> 20	–	–
C=C(C)[C@@H]1CC[C@]2(C(=O)NCc3ccco3)CC[C@]3(C)[C@H](CC[C@@H]4[C@@]5(C)CC[C@H](O[C@@H]6O[C@H](CO)[C@@H](O[C@@H]7O[C@@H](C)[C@H](O)[C@@H](O)[C@H]7O)[C@H](O)[C@H]6O[C@@H]6O[C@@H](C)[C@H](O)[C@@H](O)[C@H]6O)C(C)(C)[C@@H]5CC[C@]43C)[C@@H]12	> 20	–	–
C=C(C)[C@@H]1CC[C@]2(C(=O)NCc3ccccc3Cl)CC[C@]3(C)[C@H](CC[C@@H]4[C@@]5(C)CC[C@H](O[C@@H]6O[C@H](CO)[C@@H](O[C@@H]7O[C@@H](C)[C@H](O)[C@@H](O)[C@H]7O)[C@H](O)[C@H]6O[C@@H]6O[C@@H](C)[C@H](O)[C@@H](O)[C@H]6O)C(C)(C)[C@@H]5CC[C@]43C)[C@@H]12	> 20	–	–
C=C(C)[C@@H]1CC[C@]2(C(=O)Nc3cccc(Cl)c3)CC[C@]3(C)[C@H](CC[C@@H]4[C@@]5(C)CC[C@H](O[C@@H]6O[C@H](CO)[C@@H](O[C@@H]7O[C@@H](C)[C@H](O)[C@@H](O)[C@H]7O)[C@H](O)[C@H]6O[C@@H]6O[C@@H](C)[C@H](O)[C@@H](O)[C@H]6O)C(C)(C)[C@@H]5CC[C@]43C)[C@@H]12	6.63	8.51	56.4
C=C(C)[C@@H]1CC[C@]2(C(=O)Nc3ccccc3Cl)CC[C@]3(C)[C@H](CC[C@@H]4[C@@]5(C)CC[C@H](O[C@@H]6O[C@H](CO)[C@@H](O[C@@H]7O[C@@H](C)[C@H](O)[C@@H](O)[C@H]7O)[C@H](O)[C@H]6O[C@@H]6O[C@@H](C)[C@H](O)[C@@H](O)[C@H]6O)C(C)(C)[C@@H]5CC[C@]43C)[C@@H]12	5.41	8.7	47.1
C=C(C)[C@@H]1CC[C@]2(C(=O)NNCc3ccccc3)CC[C@]3(C)[C@H](CC[C@@H]4[C@@]5(C)CC[C@H](O[C@@H]6O[C@H](CO)[C@@H](O[C@@H]7O[C@@H](C)[C@H](O)[C@@H](O)[C@H]7O)[C@H](O)[C@H]6O[C@@H]6O[C@@H](C)[C@H](O)[C@@H](O)[C@H]6O)C(C)(C)[C@@H]5CC[C@]43C)[C@@H]12	> 20	–	–
C=C(C)[C@@H]1CC[C@]2(C(=O)NCc3cccc(Cl)c3)CC[C@]3(C)[C@H](CC[C@@H]4[C@@]5(C)CC[C@H](O[C@@H]6O[C@H](CO)[C@@H](O[C@@H]7O[C@@H](C)[C@H](O)[C@@H](O)[C@H]7O)[C@H](O)[C@H]6O[C@@H]6O[C@@H](C)[C@H](O)[C@@H](O)[C@H]6O)C(C)(C)[C@@H]5CC[C@]43C)[C@@H]12	> 20	–	–
C=C(C)[C@@H]1CC[C@]2(C(=O)NCc3ccccc3)CC[C@]3(C)[C@H](CC[C@@H]4[C@@]5(C)CC[C@H](O[C@@H]6O[C@H](CO)[C@@H](O[C@@H]7O[C@@H](C)[C@H](O)[C@@H](O)[C@H]7O)[C@H](O)[C@H]6O[C@@H]6O[C@@H](C)[C@H](O)[C@@H](O)[C@H]6O)C(C)(C)[C@@H]5CC[C@]43C)[C@@H]12	5.52	44.9	248
C=C(C)[C@@H]1CC[C@]2(C(=O)NCc3cccc(OC)c3)CC[C@]3(C)[C@H](CC[C@@H]4[C@@]5(C)CC[C@H](O[C@@H]6O[C@H](CO)[C@@H](O[C@@H]7O[C@@H](C)[C@H](O)[C@@H](O)[C@H]7O)[C@H](O)[C@H]6O[C@@H]6O[C@@H](C)[C@H](O)[C@@H](O)[C@H]6O)C(C)(C)[C@@H]5CC[C@]43C)[C@@H]12	> 20	–	–
C=C(C)[C@@H]1CC[C@]2(C(=O)Nc3cccc(OC)c3)CC[C@]3(C)[C@H](CC[C@@H]4[C@@]5(C)CC[C@H](O[C@@H]6O[C@H](CO)[C@@H](O[C@@H]7O[C@@H](C)[C@H](O)[C@@H](O)[C@H]7O)[C@H](O)[C@H]6O[C@@H]6O[C@@H](C)[C@H](O)[C@@H](O)[C@H]6O)C(C)(C)[C@@H]5CC[C@]43C)[C@@H]12	2.73	26.9	73.3
C=C(C)[C@@H]1CC[C@]2(C(=O)Nc3ccccc3OC)CC[C@]3(C)[C@H](CC[C@@H]4[C@@]5(C)CC[C@H](O[C@@H]6O[C@H](CO)[C@@H](O[C@@H]7O[C@@H](C)[C@H](O)[C@@H](O)[C@H]7O)[C@H](O)[C@H]6O[C@@H]6O[C@@H](C)[C@H](O)[C@@H](O)[C@H]6O)C(C)(C)[C@@H]5CC[C@]43C)[C@@H]12	6.11	13.6	83.2
C=C(C)[C@@H]1CC[C@]2(C(=O)NCc3ccccc3OC)CC[C@]3(C)[C@H](CC[C@@H]4[C@@]5(C)CC[C@H](O[C@@H]6O[C@H](CO)[C@@H](O[C@@H]7O[C@@H](C)[C@H](O)[C@@H](O)[C@H]7O)[C@H](O)[C@H]6O[C@@H]6O[C@@H](C)[C@H](O)[C@@H](O)[C@H]6O)C(C)(C)[C@@H]5CC[C@]43C)[C@@H]12	> 20	–	–
C=C(C)[C@@H]1CC[C@]2(C(=O)NCC3CCCCC3)CC[C@]3(C)[C@H](CC[C@@H]4[C@@]5(C)CC[C@H](O[C@@H]6O[C@H](CO)[C@@H](O[C@@H]7O[C@@H](C)[C@H](O)[C@@H](O)[C@H]7O)[C@H](O)[C@H]6O[C@@H]6O[C@@H](C)[C@H](O)[C@@H](O)[C@H]6O)C(C)(C)[C@@H]5CC[C@]43C)[C@@H]12	> 20	–	–
C=C(C)[C@@H]1CC[C@]2(C(=O)Nc3ccc4c(cnn4C)c3)CC[C@]3(C)[C@H](CC[C@@H]4[C@@]5(C)CC[C@H](O[C@@H]6O[C@H](CO)[C@@H](O[C@@H]7O[C@@H](C)[C@H](O)[C@@H](O)[C@H]7O)[C@H](O)[C@H]6O[C@@H]6O[C@@H](C)[C@H](O)[C@@H](O)[C@H]6O)C(C)(C)[C@@H]5CC[C@]43C)[C@@H]12	> 20	–	–
C=C(C)[C@@H]1CC[C@]2(C(=O)NCc3ccc(-c4ccccc4)cc3)CC[C@]3(C)[C@H](CC[C@@H]4[C@@]5(C)CC[C@H](O[C@@H]6O[C@H](CO)[C@@H](O[C@@H]7O[C@@H](C)[C@H](O)[C@@H](O)[C@H]7O)[C@H](O)[C@H]6O[C@@H]6O[C@@H](C)[C@H](O)[C@@H](O)[C@H]6O)C(C)(C)[C@@H]5CC[C@]43C)[C@@H]12	> 20	–	–
